Settings: Liquid

CCC(O)(CC)CC [3-ethyl-3-pentanol]
speed of sound [m/s]
Settings	303.15 K	313.15 K	323.15 K	333.15 K	343.15 K	353.15 K	363.15 K	373.15 K
100 kPa	1269.7	1229.3	1189.8	1152.4	1113	1073.7	1034.6	994.7
10000 kPa	1326.5	1289.3	1255.2	1217.3	1180.3	1144	1107.3	1072
20000 kPa	1379.5	1346	1311.9	1277.4	1241.1	1207.5	1172.7	1139.6
30000 kPa	1429.1	1393.8	1364.3	1330.3	1297.2	1264.4	1232.5	1200.6
40000 kPa	1474.3	1440.8	1412.8	1379.9	1349.5	1317.4	1286.4	1256.3
50000 kPa	1515.9	1484.5	1459	1426.5	1396	1366	1336.4	1307.4
60000 kPa	1556.7	1526	1500.7	1470.6	1441.1	1411.1	1383.4	1354.2
70000 kPa	1594.7	1564.6	1541	1511	1482.7	1454.8	1427.4	1400
80000 kPa	1632.3	1602.2	1580.4	1550.1	1522	1494.6	1467.9	1440.9
90000 kPa	1667.3	1638.3	1616.9	1587.4	1560.4	1533.6	1507.1	1481.4
100000 kPa	1700.2	1672.4	1651.3	1622.8	1596.4	1570.4	1544.3	1519.4

From the NIST ThermoML archive (doi:10.1016/j.jct.2005.10.002)
